{"source": "paper PMC10507113", "about": "“Function and phylogeny support the independent evolution of an ASIC-like Deg/ENaC channel in the Placozoa” (Communications Biology, 2023)", "key": {"TadNaC2": {"target": "T1, TadNaC2 (Trichoplax adhaerens, UniProt A0A5J6BSS6)", "T1 construct": "gene ASIC2; full-length cDNA cloned from whole-animal RNA, untagged in pIRES2-EGFP (pTadNaC2-IR-EGFP), CHO-K1 cells; homotrimer modelled; residues F70, T72, D75, E77, H80, E104, E105, H109, W165, F188, L198, R201, K203, S228, P229, W276, L332, S336, D413", "T1 sequence (A0A5J6BSS6 1-548)": "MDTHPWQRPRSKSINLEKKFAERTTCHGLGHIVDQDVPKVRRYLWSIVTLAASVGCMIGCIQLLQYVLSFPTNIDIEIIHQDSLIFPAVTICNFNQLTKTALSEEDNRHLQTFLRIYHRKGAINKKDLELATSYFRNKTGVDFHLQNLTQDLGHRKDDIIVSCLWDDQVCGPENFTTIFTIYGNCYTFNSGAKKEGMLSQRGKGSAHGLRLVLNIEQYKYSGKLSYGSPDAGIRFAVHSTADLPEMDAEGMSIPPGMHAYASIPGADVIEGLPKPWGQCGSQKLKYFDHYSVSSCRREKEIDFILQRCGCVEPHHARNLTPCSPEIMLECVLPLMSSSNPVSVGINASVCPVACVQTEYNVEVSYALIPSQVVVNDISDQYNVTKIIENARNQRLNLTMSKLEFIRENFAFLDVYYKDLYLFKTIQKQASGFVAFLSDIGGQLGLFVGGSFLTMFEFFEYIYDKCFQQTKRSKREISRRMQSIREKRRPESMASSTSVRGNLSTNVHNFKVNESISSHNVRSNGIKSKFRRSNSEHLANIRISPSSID", "assay": "whole-cell patch clamp, CHO-K1, amiloride dose-response of peak inward current", "assay_type": "cell-based"}, "mouse ASIC1a (mASIC1a)": {"target": "T2, mouse ASIC1a (mASIC1a) (Mus musculus, UniProt Q6NXK8)", "T2 construct": "gene Asic1; synthetic full-length subunit, untagged in pIRES2-EGFP (pmASIC1-IR-EGFP), CHO-K1 cells; homotrimer", "T2 sequence (Q6NXK8 1-526)": "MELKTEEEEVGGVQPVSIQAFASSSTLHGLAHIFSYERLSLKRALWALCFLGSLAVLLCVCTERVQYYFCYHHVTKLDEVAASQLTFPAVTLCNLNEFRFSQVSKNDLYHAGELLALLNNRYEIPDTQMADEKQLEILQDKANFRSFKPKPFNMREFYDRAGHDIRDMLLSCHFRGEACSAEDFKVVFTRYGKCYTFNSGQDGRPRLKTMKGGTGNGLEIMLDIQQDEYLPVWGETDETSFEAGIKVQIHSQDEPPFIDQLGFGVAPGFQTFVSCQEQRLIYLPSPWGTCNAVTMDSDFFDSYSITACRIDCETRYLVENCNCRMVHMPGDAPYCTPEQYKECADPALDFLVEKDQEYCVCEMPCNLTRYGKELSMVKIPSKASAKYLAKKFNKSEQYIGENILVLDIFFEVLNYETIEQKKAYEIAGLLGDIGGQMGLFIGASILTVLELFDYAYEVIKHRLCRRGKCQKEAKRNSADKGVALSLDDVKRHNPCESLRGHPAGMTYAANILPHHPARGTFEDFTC", "assay": "whole-cell patch clamp, CHO-K1, single-dose block of peak inward current", "assay_type": "cell-based", "conditions": "read-out: % block at 3 mM"}}, "data": [{"smiles": "N=C(N)NC(=O)c1nc(Cl)c(N)nc1N", "note": "[amiloride]", "values": [{"measurement": "IC50", "setting": "TadNaC2", "result": "52 ± 29.6", "unit": "µM"}, {"measurement": "inhibition at 3000 µM", "setting": "mouse ASIC1a (mASIC1a)", "result": "73 ± 4.1", "unit": "%"}]}]}
